ChEMBL document CHEMBL1153245, “A profile of the in vitro anti-tumor activity of imidazolium-based ionic liquids” (2010)

What was measured:
Type in all cases: functional
UACC-62 = assay: Anticancer activity against human UACC62 cells assessed cell growth at 10 uM after 48 hrs by sulforhodamine B assay relative to control
DU-145 = assay: Anticancer activity against human DU145 cells assessed cell growth at 10 uM after 48 hrs by sulforhodamine B assay relative to control
SNB-75 = assay: Anticancer activity against human SNB75 cells assessed cell growth at 10 uM after 48 hrs by sulforhodamine B assay relative to control
NCI-H23 = assay: Anticancer activity against human NCI-H23 cells assessed cell growth at 10 uM after 48 hrs by sulforhodamine B assay relative to control
SK-MEL-28 = assay: Anticancer activity against human SK-MEL-28 cells assessed cell growth at 10 uM after 48 hrs by sulforhodamine B assay relative to control
SK-MEL-2 = assay: Anticancer activity against human SK-MEL-2 cells assessed cell growth at 10 uM after 48 hrs by sulforhodamine B assay relative to control
SN12C = assay: Anticancer activity against human SN12C cells assessed cell growth at 10 uM after 48 hrs by sulforhodamine B assay relative to control
MDA-MB-435 = assay: Anticancer activity against human MDA-MB-435 cells assessed cell growth at 10 uM after 48 hrs by sulforhodamine B assay relative to control
SF-295 = assay: Anticancer activity against human SF295 cells assessed cell growth at 10 uM after 48 hrs by sulforhodamine B assay relative to control
SK-MEL-5 = assay: Anticancer activity against human SK-MEL-5 cells assessed cell growth at 10 uM after 48 hrs by sulforhodamine B assay relative to control
NCI-H522 = assay: Anticancer activity against human NCI-H522 cells assessed cell growth at 10 uM after 48 hrs by sulforhodamine B assay relative to control
UACC-257 = assay: Anticancer activity against human UACC257 cells assessed cell growth at 10 uM after 48 hrs by sulforhodamine B assay relative to control
A498 = assay: Anticancer activity against human A498 cells assessed cell growth at 10 uM after 48 hrs by sulforhodamine B assay relative to control
NCI-H226 = assay: Anticancer activity against human NCI-H226 cells assessed cell growth at 10 uM after 48 hrs by sulforhodamine B assay relative to control
[1] = Anticancer activity against human RPMI8266 cells assessed cell growth at 10 uM after 48 hrs by sulforhodamine B assay relative to control
T47D = assay: Anticancer activity against human T47D cells assessed cell growth at 10 uM after 48 hrs by sulforhodamine B assay relative to control
HL-60(TB) = assay: Anticancer activity against human HL-60(TB) cells assessed cell growth at 10 uM after 48 hrs by sulforhodamine B assay relative to control
SF-539 = assay: Anticancer activity against human SF539 cells assessed cell growth at 10 uM after 48 hrs by sulforhodamine B assay relative to control
ACHN = assay: Anticancer activity against human ACHN cells assessed cell growth at 10 uM after 48 hrs by sulforhodamine B assay relative to control
NCI/ADR-RES = assay: Anticancer activity against human NCI/ADR-RES cells assessed cell growth at 10 uM after 48 hrs by sulforhodamine B assay relative to control
OVCAR-3 = assay: Anticancer activity against human OVCAR-3 cells assessed cell growth at 10 uM after 48 hrs by sulforhodamine B assay relative to control
COLO 205 = assay: Anticancer activity against human COLO205 cells assessed cell growth at 10 uM after 48 hrs by sulforhodamine B assay relative to control
SF-268 = assay: Anticancer activity against human SF268 cells assessed cell growth at 10 uM after 48 hrs by sulforhodamine B assay relative to control
SK-OV-3 = assay: Anticancer activity against human SKOV3 cells assessed cell growth at 10 uM after 48 hrs by sulforhodamine B assay relative to control
HT-29 = assay: Anticancer activity against human HT-29 cells assessed cell growth at 10 uM after 48 hrs by sulforhodamine B assay relative to control
HCT-116 = assay: Anticancer activity against human HCT116 cells assessed cell growth at 10 uM after 48 hrs by sulforhodamine B assay relative to control
HCT-15 = assay: Anticancer activity against human HCT15 cells assessed cell growth at 10 uM after 48 hrs by sulforhodamine B assay relative to control
HOP-92 = assay: Anticancer activity against human HOP92 cells assessed cell growth at 10 uM after 48 hrs by sulforhodamine B assay relative to control
MDA-MB-231 = assay: Anticancer activity against human MDA-MB-231 cells assessed cell growth at 10 uM after 48 hrs by sulforhodamine B assay relative to control
SW-620 = assay: Anticancer activity against human SW620 cells assessed cell growth at 10 uM after 48 hrs by sulforhodamine B assay relative to control
CCRF-CEM = assay: Anticancer activity against human CCRF-CEM cells assessed cell growth at 10 uM after 48 hrs by sulforhodamine B assay relative to control
OVCAR-4 = assay: Anticancer activity against human OVCAR4 cells assessed cell growth at 10 uM after 48 hrs by sulforhodamine B assay relative to control
K562 = assay: Anticancer activity against human K562 cells assessed cell growth at 10 uM after 48 hrs by sulforhodamine B assay relative to control
CAKI-1 = assay: Anticancer activity against human Caki1 cells assessed cell growth at 10 uM after 48 hrs by sulforhodamine B assay relative to control
KM12 = assay: Anticancer activity against human KM12 cells assessed cell growth at 10 uM after 48 hrs by sulforhodamine B assay relative to control
OVCAR-5 = assay: Anticancer activity against human OVCAR5 cells assessed cell growth at 10 uM after 48 hrs by sulforhodamine B assay relative to control
SR = assay: Anticancer activity against human SR cells assessed cell growth at 10 uM after 48 hrs by sulforhodamine B assay relative to control
U-251 = assay: Anticancer activity against human U251 cells assessed cell growth at 10 uM after 48 hrs by sulforhodamine B assay relative to control
MOLT-4 = assay: Anticancer activity against human MOLT4 cells assessed cell growth at 10 uM after 48 hrs by sulforhodamine B assay relative to control
HCC 2998 = assay: Anticancer activity against human HCC2998 cells assessed cell growth at 10 uM after 48 hrs by sulforhodamine B assay relative to control
BT-549 = assay: Anticancer activity against human BT549 cells assessed cell growth at 10 uM after 48 hrs by sulforhodamine B assay relative to control
Malme-3M = assay: Anticancer activity against human MALME-3M cells assessed cell growth at 10 uM after 48 hrs by sulforhodamine B assay relative to control
M14 = assay: Anticancer activity against human M14 cells assessed cell growth at 10 uM after 48 hrs by sulforhodamine B assay relative to control

## CCCCCCCC[n+]1ccn(C)c1.F[P-](F)(F)(F)(F)F
UACC-62
  Activity: 90.01%
DU-145
  Activity: 99.58%
SNB-75
  Activity: 70.71%
NCI-H23
  Activity: 51.9%
SK-MEL-28
  Activity: 95.95%
SK-MEL-2
  Activity: 83.03%
SN12C
  Activity: 86.03%
MDA-MB-435
  Activity: 52.08%
SF-295
  Activity: 79.54%
SK-MEL-5
  Activity: 76.82%
NCI-H522
  Activity: 65.58%
UACC-257
  Activity: 72.49%
A498
  Activity: 85.75%
NCI-H226
  Activity: 72.91%
[1]
  Activity: 135.51%
T47D
  Activity: 73.53%
HL-60(TB)
  Activity: 91.74%
SF-539
  Activity: 67.02%
ACHN
  Activity: 67.29%
NCI/ADR-RES
  Activity: 97.14%
OVCAR-3
  Activity: 86.51%
COLO 205
  Activity: 66.27%
SF-268
  Activity: 96.73%
SK-OV-3
  Activity: 69.29%
HT-29
  Activity: 61.42%
HCT-116
  Activity: 56.26%
HCT-15
  Activity: 97.27%
HOP-92
  Activity: 96.72%
MDA-MB-231
  Activity: 65.53%
SW-620
  Activity: 73.41%
CCRF-CEM
  Activity: 84.88%
OVCAR-4
  Activity: 52.01%
K562
  Activity: 70.78%
CAKI-1
  Activity: 56.66%
KM12
  Activity: 71.32%
OVCAR-5
  Activity: 96.06%
SR
  Activity: 95.02%
U-251
  Activity: 70.41%
MOLT-4
  Activity: 86.46%
HCC 2998
  Activity: 75.73%
BT-549
  Activity: 60.35%
Malme-3M
  Activity: 62.25%
M14
  Activity: 81.87%

## CCCCCCCCCCCC[n+]1ccn(C)c1.F[B-](F)(F)F
UACC-62
  Activity: 40.33%
DU-145
  Activity: 7.97%
SNB-75
  Activity: 3.39%
NCI-H23
  Activity: 23.04%
SK-MEL-28
  Activity: 62.65%
SK-MEL-2
  Activity: 18.52%
SN12C
  Activity: 21.24%
MDA-MB-435
  Activity: 20.42%
SF-295
  Activity: 34.1%
SK-MEL-5
  Activity: -19.73%
NCI-H522
  Activity: -10.37%
UACC-257
  Activity: -7.74%
A498
  Activity: 35.81%
NCI-H226
  Activity: 37.19%
[1]
  Activity: 130.35%
T47D
  Activity: 11.08%
HL-60(TB)
  Activity: 50.79%
SF-539
  Activity: 35.07%
ACHN
  Activity: 54.07%
NCI/ADR-RES
  Activity: 76.53%
OVCAR-3
  Activity: 55.26%
COLO 205
  Activity: 15.15%
SF-268
  Activity: 66.79%
SK-OV-3
  Activity: 47.29%
HT-29
  Activity: 24.82%
HCT-116
  Activity: 16.24%
HCT-15
  Activity: 82.38%
HOP-92
  Activity: 46.45%
MDA-MB-231
  Activity: 26.48%
SW-620
  Activity: 54.63%
CCRF-CEM
  Activity: 96%
OVCAR-4
  Activity: 12.68%
K562
  Activity: 80.69%
CAKI-1
  Activity: 30.59%
KM12
  Activity: 21.76%
OVCAR-5
  Activity: 48.72%
SR
  Activity: 100.03%
U-251
  Activity: 36.74%
MOLT-4
  Activity: 71.98%
HCC 2998
  Activity: 28.68%
BT-549
  Activity: 1.51%
Malme-3M
  Activity: 31.87%
M14
  Activity: 24.71%
